# Assays:
# [1] = test system: DB; experiment: Cell viability, 7 days compound treatment (Cell Titer-Glo), DB; assay type: cell-based; conditions: Homo sapiens, 168 h, read-out: IC50 of antiproliferation
# Experimental: (§1) Fifteen thousand cells were seeded in 100 μl of media per well of a U-bottom 96-well plate and treated with digitally dispensed drugs (Tecan D300e) for the indicated times and doses. After 96 hours, plates were centrifuged for 750 rpm for 3 minutes, and old media was exchanged for 100 μl of fresh media. Drug treatment was then repeated at the indicated doses. 72 hours following media change, cells were transferred to 96 well flat-bottom opaque plates. Viability was measured by adding 25 μL Cell Titer-Glo reagent (Promega G7570) to each well and luminescence was measured (BMG Labtech Pherastar FS). The background luminescence was subtracted, and the signal was normalized to DMSO-treated cells. IC50 measurements on cell lines were calculated using at least three biological replicates by separate cell passages. Fit of dose–response curves to data and statistical analysis was performed using GraphPad PRISM using the four-parameter log(inhibitor) vs response function.
# [2] = test system: SUDHL5 cells; experiment: RNA-seq differential genes in SUDHL5; assay type: cell-based, human; conditions: SUDHL5, 1 nM, 30 min, 1, 2 and 4 hours; adj. P ≤ 0.05, |log2(fold change)| ≥ 0.5
# Experimental: Cells were plated at 1M/mL and harvested in TRIsure (Bioline 38033). RNA was extracted using Direct-zol RNA MicroPrep columns (Zymo R2062) treated with DNAseI. cDNA was prepared (Meridian Bioscience BIO-65054) and used for qPCR (Meridian Bioscience BIO-94050) using an AppliedBiosystems QuantStudio 6Pro. Primer sequences were the following:
# For sequencing library preparation, rRNA was depleted (NEB E7400) and total RNA prepared into paired-end libraries (NEB E7765) and indexed (NEB E7335). Library size distributions were confirmed using an Agilent Bioanalyzer and High Sensitivity DNA reagents (Agilent 5067) and concentrations determined by qPCR. […]
# Raw reads were checked for quality using fastqc (https://www.bioinformatics.babraham.ac.uk/projects/fastqc/) and trimmed from adapters using cutadapt[111] using parameters cutadapt -a […] -b […] --nextseq-trim=20 --minimum-length 1. Transcripts were quantified using kallisto[112] against the human Gencode v33 indexed transcriptome and annotations. […] Re-processed published datasets from the Sequence Read Archive (SRA) were the following: TCIP1 – SRX20228454, SRX20228455, SRX202284546, SRX20228457, SRX20228458, SRX20228459, SRX20228448, SRX20228449, SRX20228450; CDK-TCIP1 – SRX22117221, SRX22117222, SRX22117223, SRX22117224, SRX22117225, SRX22117226, SRX22117227, SRX22117228, SRX22117229).
# [3] = test system: DAUDI; experiment: Cell viability, 7 days compound treatment (Cell Titer-Glo), DAUDI; assay type: cell-based; conditions: Homo sapiens, 168 h, read-out: IC50 of antiproliferation
# Experimental: as §1
structure (smiles),measurement,setting,value
CNC(=O)COc1cc2cc(Nc3nc(N4CCC(C(=O)N5CCN(CCC(=O)N6CCC(n7nc(N8CCCc9cc(-c%10cnn(C)c%10)c(C(F)F)cc98)c8c7CCN(C(=O)NC)C8)CC6)CC5)CC4)ncc3Cl)cc(OC)c2n(C)c1=O [TCIP3],IC50,[1],9.8 nM
same,number of genes decreased,[2],"2,126"
same,number of genes induced,[2],"1,510"
same,IC50,[3],6.9 nM

# From article doi:10.1101/2025.03.14.643404, “A Bivalent Molecular Glue Linking Lysine Acetyltransferases to Oncogene-induced Cell Death” (bioRxiv, 2025)
